Laboratory results taken from PubChem BioAssay (NCI).
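Abbreviation: GI50, concentration required for 50% inhibition of growth. TGI marks complete inhibition of growth.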

Experiments:
Assay in all cases: inhibition of tumour cell growth, NCI panel, 384-well format
786-0 renal = system: 786-0 renal
A498 renal = system: A498 renal
ACHN renal = system: ACHN renal
CAKI-1 renal = system: CAKI-1 renal
COLO 205 colon = system: COLO 205 colon
DU-145 prostate = system: DU-145 prostate
EKVX NSCLC = system: EKVX NSCLC
HCC-2998 colon = system: HCC-2998 colon
HCT-116 colon = system: HCT-116 colon
HCT-15 colon = system: HCT-15 colon
HL-60(TB) leukemia = system: HL-60(TB) leukemia
HOP-62 NSCLC = system: HOP-62 NSCLC
HOP-92 NSCLC = system: HOP-92 NSCLC
HS 578T breast = system: HS 578T breast
HT29 colon = system: HT29 colon
IGROV1 ovarian = system: IGROV1 ovarian
K-562 leukemia = system: K-562 leukemia
KM12 colon = system: KM12 colon
LOX IMVI melanoma = system: LOX IMVI melanoma
M14 melanoma = system: M14 melanoma
MALME-3M melanoma = system: MALME-3M melanoma
MCF7 breast = system: MCF7 breast
MDA-MB-435 melanoma = system: MDA-MB-435 melanoma
MOLT-4 leukemia = system: MOLT-4 leukemia
NCI-H226 lung = system: NCI-H226 lung
NCI-H460 NSCLC = system: NCI-H460 NSCLC
NCI/ADR-RES ovarian = system: NCI/ADR-RES ovarian
OVCAR-3 ovarian = system: OVCAR-3 ovarian
OVCAR-4 ovarian = system: OVCAR-4 ovarian
OVCAR-8 ovarian = system: OVCAR-8 ovarian
PC-3 prostate = system: PC-3 prostate
RPMI-8226 leukemia = system: RPMI-8226 leukemia
RXF 393 renal = system: RXF 393 renal
SF-268 CNS = system: SF-268 CNS
SF-295 CNS = system: SF-295 CNS
SF-539 CNS = system: SF-539 CNS
SK-MEL-2 melanoma = system: SK-MEL-2 melanoma
SK-MEL-28 melanoma = system: SK-MEL-28 melanoma
SK-MEL-5 melanoma = system: SK-MEL-5 melanoma
SK-OV-3 ovarian = system: SK-OV-3 ovarian
SN12C renal = system: SN12C renal
SW-620 colon = system: SW-620 colon
T-47D breast = system: T-47D breast
U251 glioblastoma = system: U251 glioblastoma
UACC-257 melanoma = system: UACC-257 melanoma
UACC-62 melanoma = system: UACC-62 melanoma
UO-31 renal = system: UO-31 renal

O=C(Nc1cnn2ccc(N3CCC[C@@H]3c3cc(F)ccc3F)nc12)N1CC[C@H](O)C1
GI50 ([…]-0 renal): > 100 µM | TGI (786-0 renal): > 100 µM | GI50 (A498 renal): > 100 µM | TGI (A498 renal): > 100 µM | GI50 (ACHN renal): > 100 µM | TGI (ACHN renal): > 100 µM | GI50 (CAKI-1 renal): > 100 µM | TGI (CAKI-1 renal): > 100 µM | GI50 (COLO 205 colon): > 100 µM | TGI (COLO 205 colon): > 100 µM | GI50 (DU-145 prostate): > 100 µM | TGI (DU-145 prostate): > 100 µM | GI50 (EKVX NSCLC): > 100 µM | TGI (EKVX NSCLC): > 100 µM | GI50 (HCC-2998 colon): > 100 µM | TGI (HCC-2998 colon): > 100 µM | GI50 (HCT-116 colon): > 100 µM | TGI (HCT-116 colon): > 100 µM | GI50 (HCT-15 colon): > 100 µM | TGI (HCT-15 colon): > 100 µM | GI50 (HL-60(TB) leukemia): > 100 µM | TGI (HL-60(TB) leukemia): > 100 µM | GI50 (HOP-62 NSCLC): > 100 µM | TGI (HOP-62 NSCLC): > 100 µM | GI50 (HOP-92 NSCLC): > 100 µM | TGI (HOP-92 NSCLC): > 100 µM | GI50 (HS 578T breast): > 100 µM | TGI (HS 578T breast): > 100 µM | GI50 (HT29 colon): > 100 µM | TGI (HT29 colon): > 100 µM | GI50 (IGROV1 ovarian): > 100 µM | TGI (IGROV1 ovarian): > 100 µM | GI50 (K-562 leukemia): > 100 µM | TGI (K-562 leukemia): > 100 µM | GI50 (KM12 colon): 0.0181 µM | TGI (KM12 colon): > 100 µM | GI50 (LOX IMVI melanoma): > 100 µM | TGI (LOX IMVI melanoma): > 100 µM | GI50 (M14 melanoma): > 100 µM | TGI (M14 melanoma): > 100 µM | GI50 (MALME-3M melanoma): > 100 µM | TGI (MALME-3M melanoma): > 100 µM | GI50 (MCF7 breast): > 100 µM | TGI (MCF7 breast): > 100 µM | GI50 (MDA-MB-435 melanoma): > 100 µM | TGI (MDA-MB-435 melanoma): > 100 µM | GI50 (MOLT-4 leukemia): 77.1 µM | TGI (MOLT-4 leukemia): > 100 µM | GI50 (NCI-H226 lung): > 100 µM | TGI (NCI-H226 lung): > 100 µM | GI50 (NCI-H460 NSCLC): > 100 µM | TGI (NCI-H460 NSCLC): > 100 µM | GI50 (NCI/ADR-RES ovarian): > 100 µM | TGI (NCI/ADR-RES ovarian): > 100 µM | GI50 (OVCAR-3 ovarian): > 100 µM | TGI (OVCAR-3 ovarian): > 100 µM | GI50 (OVCAR-4 ovarian): > 100 µM | TGI (OVCAR-4 ovarian): > 100 µM | GI50 (OVCAR-8 ovarian): > 100 µM | TGI (OVCAR-8 ovarian): > 100 µM | GI50 (PC-3 prostate): > 100 µM | TGI (PC-3 prostate): > 100 µM | GI50 (RPMI-8226 leukemia): > 100 µM | TGI (RPMI-8226 leukemia): > 100 µM | GI50 (RXF 393 renal): > 100 µM | TGI (RXF 393 renal): > 100 µM | GI50 (SF-268 CNS): > 100 µM | TGI (SF-268 CNS): > 100 µM | GI50 (SF-295 CNS): > 100 µM | TGI (SF-295 CNS): > 100 µM | GI50 (SF-539 CNS): > 100 µM | TGI (SF-539 CNS): > 100 µM | GI50 (SK-MEL-2 melanoma): > 100 µM | TGI (SK-MEL-2 melanoma): > 100 µM | GI50 (SK-MEL-28 melanoma): > 100 µM | TGI (SK-MEL-28 melanoma): > 100 µM | GI50 (SK-MEL-5 melanoma): > 100 µM | TGI (SK-MEL-5 melanoma): > 100 µM | GI50 (SK-OV-3 ovarian): > 100 µM | TGI (SK-OV-3 ovarian): > 100 µM | GI50 (SN12C renal): > 100 µM | TGI (SN12C renal): > 100 µM | GI50 (SW-620 colon): > 100 µM | TGI (SW-620 colon): > 100 µM | GI50 (T-47D breast): > 100 µM | TGI (T-47D breast): > 100 µM | GI50 (U251 glioblastoma): > 100 µM | TGI (U251 glioblastoma): > 100 µM | GI50 (UACC-257 melanoma): > 100 µM | TGI (UACC-257 melanoma): > 100 µM | GI50 (UACC-62 melanoma): > 100 µM | TGI (UACC-62 melanoma): > 100 µM | GI50 (UO-31 renal): > 100 µM | TGI (UO-31 renal): > 100 µM
